Results on 23 molecules are retold here after US8435978B2, “Substituted sulfonamide compounds” (Gruenenthal GmbH, priority 2006, dated 2013).

In assay [1] the target is T1, human B1R receptor (Homo sapiens, UniProt P46663).
T1 construct: host or cells: CHO K1 cells (Chinese hamster ovary), stably transfected
T1 sequence (P46663 1-353): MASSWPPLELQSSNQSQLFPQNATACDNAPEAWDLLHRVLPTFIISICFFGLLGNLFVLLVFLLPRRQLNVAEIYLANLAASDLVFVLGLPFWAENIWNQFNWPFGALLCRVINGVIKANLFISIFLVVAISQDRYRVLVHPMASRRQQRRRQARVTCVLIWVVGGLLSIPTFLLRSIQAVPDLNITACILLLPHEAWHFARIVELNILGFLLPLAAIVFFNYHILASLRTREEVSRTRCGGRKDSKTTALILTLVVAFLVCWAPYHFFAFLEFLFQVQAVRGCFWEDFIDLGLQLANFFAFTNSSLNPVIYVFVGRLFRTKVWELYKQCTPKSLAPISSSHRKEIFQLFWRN
Kind of assay: Functional study on the bradykinin receptor 1 (B1R), FLIPR Ca2+ assay, hB1R cells. Type of assay: cell-based. The note with it: agonist Lys-Des-Arg9-bradykinin 0.5 nM, % inhibition compared with the maximum achievable inhibition; for inhibition at 10 µM: CHO-K1, test substance 10 μM, read-out: B1R Antagonism, human [10 μM] % Inhibition; for B1R Antagonism, human [10 μM] % Inhibition: test substance 10 μM, hB1R CHO K1 cells. In outline:
(§1)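 FLIPR Ca2+ read-out (Fluo-4, peak fluorescence) in stably transfected CHO K1 cells. Compounds at 10 μM, then 10 min later agonist challenge: human B1R with Lys-Des-Arg9-bradykinin 0.5 nM, rat B1R with Des-Arg9-bradykinin 100 nM; reported as % activation or % of maximal inhibition.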

In assay [2] the target is T2, B1R receptor of the rat (Rattus norvegicus, UniProt P97583).
T2 construct: host or cells: CHO K1 cells (Chinese hamster ovary), stably transfected
T2 sequence (P97583 1-337): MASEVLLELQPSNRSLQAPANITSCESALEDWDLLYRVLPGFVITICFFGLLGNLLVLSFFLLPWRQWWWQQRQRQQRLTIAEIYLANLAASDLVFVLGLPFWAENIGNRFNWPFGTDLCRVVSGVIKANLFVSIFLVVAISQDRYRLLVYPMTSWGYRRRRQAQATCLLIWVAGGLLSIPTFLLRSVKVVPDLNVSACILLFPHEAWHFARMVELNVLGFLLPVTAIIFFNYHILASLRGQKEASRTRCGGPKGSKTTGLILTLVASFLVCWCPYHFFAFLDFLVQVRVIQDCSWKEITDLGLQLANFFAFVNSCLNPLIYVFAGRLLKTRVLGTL
Put plainly: Functional study on the bradykinin receptor 1 (B1R), FLIPR Ca2+ assay, rB1R cells. Type of assay: cell-based. The note with it: agonist Des-Arg9-bradykinin 100 nM, % inhibition compared with the maximum achievable inhibition; for inhibition at 10 µM: CHO-K1, test substance 10 μM, read-out: B1R Antagonism, rat [10 μM] % Inhibition; for B1R Antagonism, rat [10 μM] % Inhibition: test substance 10 μM, rB1R CHO K1 cells. In outline:
as §1

What is called inhibition is the change of the read-out against control, counted positive when it falls. With `COc1ccc(S(=O)(=O)N2CCCCC2COCC(=O)N2CCN(Cc3cccc(C)c3)CC2)cc1` (stereo not shown) [Example 219, 2-((1-(4-methoxyphenylsulfonyl)piperidin-2-yl)methoxy)-1-(4-(3-methylbenzyl)piperazin-1-yl)ethanone], the inhibition at 10 µM in assay [1] was 5.04%; in assay [2], 96.2%.
Taken in the same sequence, the figures for `COc1ccc(S(=O)(=O)N2CCCCC2COCC(=O)N2CCN(c3nc(CCc4ccccc4)cs3)CC2)cc1` (stereo not shown) [Example 220, 2-((1-(4-methoxyphenylsulfonyl)piperidin-2-yl)methoxy)-1-(4-(4-phenethylthiazol-2-yl)piperazin-1-yl)ethanone] were 15.3% and 86.3%.
Taken in the same sequence, the figures for `COc1ccc(S(=O)(=O)N2CCCCC2CCOCC(=O)N2CCN(CCN3CCCCC3)CC2)cc1` (stereo not shown) [Example 221, 2-(2-(1-(4-methoxyphenylsulfonyl)piperidin-2-yl)ethoxy)-1-(4-(2-(piperidin-1-yl)ethyl)piperazin-1-yl)ethanone] were 38% and 89.6%.
Taken in the same sequence, the figures for `Cc1cc(C)c(S(=O)(=O)N2CCCCC2COCC(=O)N2CCC(c3nc4cc(C)ccc4[nH]3)CC2)c(C)c1` (stereo not shown) [Example 222, 2-((1-(mesitylsulfonyl)piperidin-2-yl)methoxy)-1-(4-(5-methyl-1H-benzo[d]imidazol-2-yl)piperidin-1-yl)ethanone] were 7.55% and 114%.
Consider `Cc1cc(C)nc(CC2CCCCN2C(=O)COCC2Cc3ccccc3CN2S(=O)(=O)c2c(C)cc(C)cc2C)c1` (stereo not shown) [Example 223, 1-(2-((4,6-dimethylpyridin-2-yl)methyl)piperidin-1-yl)-2-((2-(mesitylsulfonyl)-1,2,3,4-tetrahydroisoquinolin-3-yl)methoxy)ethanone], for which the figures for the inhibition at 10 µM in assay [1] and in assay [2] were 26.2% and 86.4%, respectively.
Taken in the same sequence, the figures for `O=C(COCC1CCCCN1S(=O)(=O)c1cccc(C(F)(F)F)c1)N1CCCCC1c1cncc(Br)c1` (stereo not shown) [Example 224, 1-(2-(5-bromopyridin-3-yl)piperidin-1-yl)-2-((1-(3-(trifluoromethyl)phenylsulfonyl)piperidin-2-yl)methoxy)ethanone] were 72.1% and 52.8%.
Taken in the same sequence, the figures for `Cc1cc(C)c(S(=O)(=O)N2CCCCC2COCC(=O)N2CCC(N3CCCCC3)CC2)c(C)c1` (stereo not shown) [Example 225, 1-(1,4′-bipiperidin-1′-yl)-2-((1-(mesitylsulfonyl)piperidin-2-yl)methoxy)ethanone] were 104% and 84.1%.
Taken in the same sequence, the figures for `Cc1cc(C)c(S(=O)(=O)N2CCCCC2COCC(=O)N2CCCC2Cc2ccccn2)c(C)c1` (stereo not shown) [Example 226, 2-((1-(mesitylsulfonyl)piperidin-2-yl)methoxy)-1-(2-(pyridin-2-ylmethyl)pyrrolidin-1-yl)ethanone] were 76.4% and 96.9%.
As to `COc1ccc(C2CCCCN2C(=O)COCC2CCCCN2S(=O)(=O)c2c(C)cc(C)cc2C)cn1` (stereo not shown) [Example 227, 2-((1-(mesitylsulfonyl)piperidin-2-yl)methoxy)-1-(2-(6-methoxypyridin-3-yl)piperidin-1-yl)ethanone], the inhibition at 10 µM in assay [1] worked out at 26.9%; in assay [2], 94.5%.
Taken in the same sequence, the figures for `CCc1ccc(CC2CCCCN2C(=O)COCC2CCCCN2S(=O)(=O)c2c(C)cc(C)cc2C)nc1` (stereo not shown) [Example 228, 1-(2-((5-ethylpyridin-2-yl)methyl)piperidin-1-yl)-2-((1-(mesitylsulfonyl)piperidin-2-yl)methoxy)ethanone] were 88.6% and 99.8%.
Taken in the same sequence, the figures for `Cc1cc(C)c(S(=O)(=O)N2CCCCC2COCC(=O)N2CCCCC2Cc2ncccc2C)c(C)c1` (stereo not shown) [Example 229, 2-((1-(mesitylsulfonyl)piperidin-2-yl)methoxy)-1-(2-((3-methylpyridin-2-yl)methyl)piperidin-1-yl)ethanone] were 101% and 101%.
Consider `CN1CCN(C2CCN(C(=O)COCC3CCCCN3S(=O)(=O)c3cccc4ccccc34)CC2)CC1` (stereo not shown) [Example 230, 1-(4-(4-methylpiperazin-1-yl)piperidin-1-yl)-2-((1-(naphthen-1-ylsulfonyl)piperidin-2-yl)methoxy)ethanone], for which the “B1R Antagonism, human [10 μM] % Inhibition” value in assay [1] was determined as 95.42%. Besides, the “B1R Antagonism, rat [10 μM] % Inhibition” value in assay [2] worked out at 62.33%.
In the case of `Cc1cc(C)c(S(=O)(=O)N2CCCCC2COCC(=O)N2CCC(N3CCN(C)CC3)CC2)c(C)c1` (stereo not shown) [Example 231, 2-((1-(mesitylsulfonyl)piperidin-2-yl)methoxy)-1-(4-(4-methylpiperazin-1-yl)piperidin-1-yl)ethanone], the inhibition at 10 µM in assay [1] is 102%; in assay [2] it was 83.3%.
The matching figures for `Cc1cc(C)c(S(=O)(=O)N2CCCCC2COCC(=O)N2CCN(CC3CCN(C)CC3)CC2)c(C)c1` (stereo not shown) [Example 232, 2-((1-(mesitylsulfonyl)piperidin-2-yl)methoxy)-1-(4-((1-methylpiperidin-4-yl)methyl)piperazin-1-yl)ethanone]: 102% and 90%.
For the molecule `CN1CCN(C2CCN(C(=O)COCC3Cc4ccccc4CN3S(=O)(=O)c3ccc(Cl)cc3Cl)CC2)CC1` (stereo not shown) [Example 233, 2-((2-(2,4-dichlorophenylsulfonyl)-1,2,3,4-tetrahydroisoquinolin-3-yl)methoxy)-1-(4-(4-methylpiperazin-1-yl)piperidin-1-yl)ethanone], the inhibition at 10 µM in assay [1] is 102%; in assay [2] it was 86.7%.
As for `Cc1cc(C)c(S(=O)(=O)N2CCCCC2COCC(=O)N2CCN(c3nc(Cc4ccccc4)cs3)CC2)c(C)c1` (stereo not shown) [Example 234, 1-(4-(4-benzylthiazol-2-yl)piperazin-1-yl)-2-((1-(mesitylsulfonyl)piperidin-2-yl)methoxy)ethanone], the inhibition at 10 µM in assay [1] amounted to 52%; in assay [2], 103%.
In the case of `O=C(COCC1CCCCN1S(=O)(=O)c1cccc2ccccc12)N1CCC(N2CCCCC2)CC1` (stereo not shown) [Example 235], the “B1R Antagonism, human [10 μM] % Inhibition” value in assay [1] stood at 102.3%. For the same molecule, the “B1R Antagonism, rat [10 μM] % Inhibition” value in assay [2] was found to be 83.46%.
Regarding `COc1cc(C)c(S(=O)(=O)N2CCCCC2COCC(=O)N2CCC(c3ccccn3)C2)c(C)c1` (stereo not shown) [Example 236, 2-((1-(4-methoxy-2,6-dimethylphenylsulfonyl)piperidin-2-yl)methoxy)-1-(3-(pyridin-2-yl)pyrrolidin-1-yl)ethanone], the inhibition at 10 µM was 95.9% in assay [1] and 99.6% in assay [2].
The matching figures for `COc1cc(C)c(S(=O)(=O)N2CCCCC2COCC(=O)N2CCC(c3cccnc3)C2)c(C)c1` (stereo not shown) [Example 237, 2-((1-(4-methoxy-2,6-dimethylphenylsulfonyl)piperidin-2-yl)methoxy)-1-(3-(pyridin-3-yl)pyrrolidin-1-yl)ethanone]: 99.7% and 99.5%.
The matching figures for `COc1cc(C)c(S(=O)(=O)N2CCCCC2COCC(=O)N2CCC(c3ccncc3)C2)c(C)c1` (stereo not shown) [Example 238, 2-((1-(4-methoxy-2,6-dimethylphenylsulfonyl)piperidin-2-yl)methoxy)-1-(3-(pyridin-4-yl)pyrrolidin-1-yl)ethanone]: 99.9% and 99.3%.
Taken in the same sequence, the figures for `COc1cc(C)c(S(=O)(=O)N2CCCCC2COCC(=O)N(C)CCc2ccncc2)c(C)c1` (stereo not shown) [Example 239, 2-((1-(4-methoxy-2,6-dimethylphenylsulfonyl)piperidin-2-yl)methoxy)-N-methyl-N-(2-(pyridin-4-yl)ethyl)acetamide] were 94.7% and 99.7%.
Consider `Cc1cc(C)nc(CC2CCCN2C(=O)COCC2CCCCN2S(=O)(=O)c2cccc3ccccc23)c1` (stereo not shown) [Example 240, 1-(2-((4,6-dimethylpyridin-2-yl)methyl)pyrrolidin-1-yl)-2-((1-(naphthen-1-ylsulfonyl)piperidin-2-yl)methoxy)ethanone], for which the “B1R Antagonism, human [10 μM] % Inhibition” value in assay [1] is recorded as 78.48%. Also, the “B1R Antagonism, rat [10 μM] % Inhibition” value in assay [2] worked out at 97.3%.
Turning to `COc1cc(C)c(S(=O)(=O)N2CCCCC2COCC(=O)N(C)C(CN2CCCC2)c2ccccc2)c(C)c1` (stereo not shown) [Example 241, 2-((1-(4-methoxy-2,6-dimethylphenylsulfonyl)piperidin-2-yl)methoxy)-N-methyl-N-(1-phenyl-2-(pyrrolidin-1-yl)ethyl)acetamide], the inhibition at 10 µM in assay [1] was 104%; in assay [2], 99.3%.
